USRE48097E1, “Cephem compounds, their production and use” (priority 2015, dated 2020)
Values after ≈ are worked out from the molar mass of the structure shown. Where two headings read alike, the source gives them in different places. Values belong to the molecule of their own block, whether it stands above or below them.

Columns and labels:
[1] = test system: S. pneumoniae 2492; experiment: MIC against S. pneumoniae 2492; format: cell-based; conditions: Table 2, S. pneumoniae 2492, Pen R
Description: (§1) Without limitation, the present cephem compounds alone, or in combination with one or more β-lactamase inhibitors, may provide improved antibacterial efficacy, particularly in antibiotic-resistant bacterial strains. It is believed that the present compounds may be structurally different from known compounds and, as a result, may be more basic in nature. It is an advantage that the present compounds may extend the spectrum of effective bacterial compounds, particularly against previously-resistant bacteria (e.g. ESKAPE organisms), and/or gram negative bacteria, without significant side effects. In a preferred embodiment, the present cephem compound may comprise reference compound ceftazidime, which may be used alone, or in combination with one or more β-lactamase inhibitors, such as NXL-104. As shown, the foregoing composition was tested for minimum inhibitory concentration (MIC, μg/mL) against bacteria listed in Tables 2-3.

[2] = test system: E. coli 4103; experiment: MIC against E. coli 4103; format: cell-based; conditions: Table 3, E. coli 4103, KPC-2, TEM-1, CMY-type
Protocol: (§2) As shown, the foregoing composition was tested for minimum inhibitory concentration (MIC, μg/mL) against bacteria listed in Tables 2-3.

[3] = test system: E. cloacae596; experiment: MIC against E. cloacae596; format: cell-based, E. cloacae; conditions: Table 2, E. cloacae596, Caz R, IMP S
Description: as §1

[4] = test system: K. baumanii 4091; experiment: MIC against K. baumanii 4091; format: cell-based; conditions: Table 2, K. baumanii 4091, OXA-23
Description: as §1

[5] = test system: C. freundii 579; experiment: MIC against C. freundii 579; format: cell-based; conditions: Table 2, C. freundii 579, Caz R, IMP S
Description: as §1

[6] = test system: K. pneumoniae 4109; experiment: MIC against K. pneumoniae 4109; format: cell-based; conditions: Table 2, K. pneumoniae 4109, SHV-1, SHV-12
Description: as §1

[7] = test system: S. aureus 3136; experiment: MIC against S. aureus 3136; format: cell-based; conditions: Table 2, S. aureus 3136, MSSA
Description: as §1

[8] = test system: K. pneumoniae 2712; experiment: MIC against K. pneumoniae 2712; format: cell-based; conditions: Table 3, K. pneumoniae 2712, KPC-3, VIM-1
Protocol: as §2

[9] = test system: E. cloacae 2689; experiment: MIC against E. cloacae 2689; format: cell-based; conditions: Table 3, E. cloacae 2689, KPC-2
Protocol: as §2

[10] = test system: C. freundii 2003; experiment: MIC against C. freundii 2003; format: cell-based; conditions: Table 2, C. freundii 2003, Caz R, IMP S
Description: as §1

[11] = test system: E. coli 4098; experiment: MIC against E. coli 4098; format: cell-based; conditions: Table 2, E. coli 4098, CTX-M-15, TEM-1
Description: as §1

[12] = test system: K. pneumoniae 2713; experiment: MIC against K. pneumoniae 2713; format: cell-based; conditions: Table 3, K. pneumoniae 2713, KPC-3, VIM-1
Protocol: as §2

[13] = test system: E. coli 2671; experiment: MIC against E. coli 2671; format: cell-based; conditions: Table 2, E. coli 2671, VIM-19
Description: as §1

[14] = test system: E. cloacae 2044; experiment: MIC against E. cloacae 2044; format: cell-based; conditions: Table 2, E. cloacae 2044, Caz S, IMP S
Description: as §1

[15] = test system: K. pneumoniae 4106; experiment: MIC against K. pneumoniae 4106; format: cell-based; conditions: K. pneumoniae 4106, KPC-3, TEM-1, SHV-12, SHV-141
Protocol: as §2

[16] = test system: M. morganii 2409; experiment: MIC against M. morganii 2409; format: cell-based; conditions: Table 2, M. morganii 2409, High level cephase, β-Lactamase producing
Description: as §1

[17] = test system: K. pneumoniae 2689; experiment: MIC against K. pneumoniae 2689; format: cell-based; conditions: K. pneumoniae 2689, KPC-2
Protocol: as §2

[18] = test system: E. coli 4102; experiment: MIC against E. coli 4102; format: cell-based; conditions: Table 2, E. coli 4102, CTX-M-14
Description: as §1

[19] = test system: K. pneumoniae 4104; experiment: MIC against K. pneumoniae 4104; format: cell-based; conditions: K. pneumoniae 4104, KPC-3, TEM-1
Protocol: as §2

[20] = test system: E. coli 102; experiment: MIC against E. coli 102; format: cell-based; conditions: Table 2, E. coli 102, TEM-1
Description: as §1

[21] = test system: K. pneumoniae 4105; experiment: MIC against K. pneumoniae 4105; format: cell-based; conditions: K. pneumoniae 4105, KPC-3, TEM-1, SHV-11
Protocol: as §2

[22] = test system: E. cloacae 566; experiment: MIC against E. cloacae 566; format: cell-based; conditions: Table 2, E. cloacae 566, Caz R, IMP S
Description: as §1

[23] = test system: K. pneumoniae 2711; experiment: MIC against K. pneumoniae 2711; format: cell-based; conditions: Table 3, K. pneumoniae 2711, KPC-3, VIM-1
Protocol: as §2

[24] = Streptococcus pneumoniae, alone, read-out: MIC
[25] = Escherichia coli, alone, read-out: MIC
[26] = Enterobacter cloacae, alone, read-out: MIC
[27] = Citrobacter freundii, alone, read-out: MIC
[28] = Klebsiella pneumoniae, alone, read-out: MIC
[29] = Staphylococcus aureus, alone, read-out: MIC
[30] = Klebsiella pneumoniae, 4106, Table 2, alone, read-out: MIC
[31] = Klebsiella pneumoniae, 4106, Table 3, alone, read-out: MIC
[32] = Table 2, in combination with NXL-104
[33] = Table 3, in combination with NXL-104
[34] = Morganella morganii, alone, read-out: MIC
[35] = Klebsiella pneumoniae, 2689, Table 2, alone, read-out: MIC
[36] = Klebsiella pneumoniae, 2689, Table 3, alone, read-out: MIC
[37] = Klebsiella pneumoniae, 4104, Table 2, alone, read-out: MIC
[38] = Klebsiella pneumoniae, 4104, Table 3, alone, read-out: MIC
[39] = Klebsiella pneumoniae, 4105, Table 2, alone, read-out: MIC
[40] = Klebsiella pneumoniae, 4105, Table 3, alone, read-out: MIC

- MIC [1, 24]: 2 µg/mL
- MIC ([1]; in combination with NXL-104): 2.00 µg/mL
- MIC [2, 25]: > 32 µg/mL
- MIC ([2]; in combination with NXL-104): 4 µg/mL
- MIC [3, 26]: 8 µg/mL
- MIC ([3]; in combination with NXL-104): 0.50 µg/mL
- MIC ([4]; alone, read-out: MIC): 16 µg/mL
- MIC ([4]; in combination with NXL-104): 4.00 µg/mL
- MIC [5, 27]: 2 µg/mL
- MIC ([5]; in combination with NXL-104): 0.25 µg/mL
- MIC [6, 28]: 8 µg/mL
- MIC ([6]; in combination with NXL-104): 0.12 µg/mL
- MIC [7, 29]: 4 µg/mL
- MIC ([7]; in combination with NXL-104): 4.00 µg/mL
- MIC [8, 28]: > 32 µg/mL
- MIC ([8]; in combination with NXL-104): 4 µg/mL
- MIC [9, 26]: 16 µg/mL (≈ 22.6 µM)
- MIC ([9]; in combination with NXL-104): 1 µg/mL
- MIC [10, 27]: 4 µg/mL
- MIC ([10]; in combination with NXL-104): 0.50 µg/mL
- MIC [11, 25]: 32 µg/mL
- MIC ([11]; in combination with NXL-104): 0.12 µg/mL
- MIC [12, 28]: > 32 µg/mL
- MIC ([12]; in combination with NXL-104): 2 µg/mL
- MIC [13, 25]: 32 µg/mL
- MIC ([13]; in combination with NXL-104): 32.00 µg/mL
- MIC [14, 26]: 0.12 µg/mL
- MIC ([14]; in combination with NXL-104): ≤0.06 µg/mL
- MIC [15, 30]: 16 µg/mL (≈ 22.6 µM)
- MIC [15, 31]: 32 µg/mL (≈ 45.2 µM)
- MIC [15, 32]: 1.00 µg/mL
- MIC [15, 33]: 2 µg/mL
- MIC [16, 34]: 16 µg/mL
- MIC ([16]; in combination with NXL-104): 1.00 µg/mL
- MIC [17, 35]: 16 µg/mL (≈ 22.6 µM)
- MIC [17, 36]: 16 µg/mL (≈ 22.6 µM)
- MIC [17, 32]: 1.00 µg/mL
- MIC [17, 33]: 1 µg/mL
- MIC [18, 25]: 2 µg/mL
- MIC ([18]; in combination with NXL-104): 0.12 µg/mL
- MIC [19, 37]: 32 µg/mL (≈ 45.2 µM)
- MIC [19, 38]: 32 µg/mL (≈ 45.2 µM)
- MIC [19, 32]: 2.00 µg/mL
- MIC [19, 33]: 0.5 µg/mL
- MIC [20, 25]: ≤ 0.06 µg/mL
- MIC ([20]; in combination with NXL-104): ≤0.06 µg/mL
- MIC [21, 39]: 32 µg/mL (≈ 45.2 µM)
- MIC [21, 40]: 32 µg/mL (≈ 45.2 µM)
- MIC [21, 32]: 1.00 µg/mL
- MIC [21, 33]: 2 µg/mL
- MIC [22, 26]: 4 µg/mL
- MIC ([22]; in combination with NXL-104): 0.50 µg/mL
- MIC [23, 28]: 4 µg/mL (≈ 5.65 µM)
- MIC ([23]; in combination with NXL-104): 0.5 µg/mL
Compound: CC(C)(O/N=C(\C(=O)N[C@@H]1C(=O)N2C(C(=O)[O-])=C(C[n+]3ccc4c(ccn4Cc4cc(C(=N)N)co4)c3)CS[C@H]12)c1csc(N)n1)C(=O)O [Example 6, (6R,7R)-7-{[(2Z)-2-(2-Amino-1,3-thiazol-4-yl)-2-{[(2-carboxypropan-2-yl)oxy]imino}acetyl]amino}-3-({1-[(4-carbamimidoylfuran-2-yl)methyl]-1H-pyrrolo[3,2-c]pyridin-5-ium-5-yl}methyl)-8-oxo-5-thia-1-azabicyclo[4.2.0]oct-2-ene-2-carboxylate]

- MIC [1, 24]: 2 µg/mL
- MIC [2, 25]: > 32 µg/mL
- MIC [3, 26]: 4 µg/mL
- MIC ([4]; alone, read-out: MIC): 16 µg/mL
- MIC [5, 27]: 4 µg/mL
- MIC [6, 28]: 2 µg/mL
- MIC [7, 29]: 2 µg/mL
- MIC [8, 28]: > 32 µg/mL
- MIC [9, 26]: 32 µg/mL (≈ 44.6 µM)
- MIC [10, 27]: 8 µg/mL
- MIC [11, 25]: 4 µg/mL
- MIC [12, 28]: > 32 µg/mL
- MIC [13, 25]: 16 µg/mL
- MIC [14, 26]: 0.25 µg/mL
- MIC [15, 30]: 8 µg/mL (≈ 11.1 µM)
- MIC [15, 31]: 32 µg/mL (≈ 44.6 µM)
- MIC [16, 34]: 8 µg/mL
- MIC [17, 35]: 8 µg/mL (≈ 11.1 µM)
- MIC [17, 36]: 16 µg/mL (≈ 22.3 µM)
- MIC [18, 25]: 1 µg/mL
- MIC [19, 37]: 16 µg/mL (≈ 22.3 µM)
- MIC [19, 38]: 32 µg/mL (≈ 44.6 µM)
- MIC [20, 25]: ≤ 0.06 µg/mL
- MIC [21, 39]: 16 µg/mL (≈ 22.3 µM)
- MIC [21, 40]: 32 µg/mL (≈ 44.6 µM)
- MIC [22, 26]: 4 µg/mL
- MIC [23, 28]: 4 µg/mL (≈ 5.57 µM)
Compound: CC(C)(O/N=C(\C(=O)N[C@@H]1C(=O)N2C(C(=O)[O-])=C(C[n+]3ccc4c(ccn4Cc4ccc(C(=N)N)cc4)c3)CS[C@H]12)c1csc(N)n1)C(=O)O [Ex-1, (6R,7R)-7-{[(2Z)-2-(2-Amino-1,3-thiazol-4-yl)-2-{[(2-carboxypropan-2-yl)oxy]imino}acetyl]-amino}-3-{[1-(4-carbamimidoylbenzyl)-1H-pyrrolo[3,2-c]pyridin-5-ium-5-yl]methyl}-8-oxo-5-thia-1-azabicyclo[4.2.0]oct-2-ene-2-carboxylate]
